Key:
[1] = Hepatocyte intrinsic clearance assay, mouse hepatocytes; format: in vitro ADME; settings: male, IRC/CD-1, cryopreserved mouse hepatocytes; Mouse Hepatocytes, 1 μM test compound
Source text: (§1) The liver is an important organ in the body for drug metabolism. This Example describes hepatocyte intrinsic clearance assays using both human and mouse hepatocytes to evaluate the metabolic stability of the indole compounds disclosed herein. The parameters measured include t1/2 (half-life), CLint (intrinsic clearance), and EH (hepatic extraction ratio).
(§2) Testosterone (Lot FE111011-01) was obtained from Cerilliant (Round Rock, TX). 7-hydroxycoumarin (Lot 11631ED) was obtained from Sigma Aldrich (St. Louis, MO). Cryopreserved human hepatocytes pooled from ten donor males (X008001), cryopreserved male IRC/CD-1 mouse hepatocytes (M005052), INVITROGRO HI Medium (incubation), and INVITROGRO HT Medium (thawing) were obtained from Bioreclamation IVT (Baltimore, MD). All solvents were obtained from commercial sources and used without further purification.
(§3) Each test compound was prepared as a 1 mM stock solution in DMSO. A 2 μM solution of test compound and positive controls were prepared in INVITROGRO HI Medium (incubation). These solutions were pre-warmed in a sterile incubator set to maintain 37° C., 5% CO2, and 98% humidity. Cryopreserved hepatocytes were prepared at a concentration of 2×10^6 living cells/mL in incubation media and pre-warmed in the incubator. The compound solutions and hepatocyte mixtures were then combined at a ratio of 1:1 (v:v). The final volume of the reaction mixture was 750 μL, containing 1 μM test compound (10 μM for 7-hydroxycoumarin) and […]. The reaction mixture was placed in the incubator on a plate shaker. After 0, 15, 30, 60, 90, and 120 minutes of incubation, 100 μL of reaction mixtures were removed from the incubation plate and mixed with 150 μL of ice-cold acetonitrile in a designated well of a 96-well crash plate. The 96-well crash plate was placed on ice for 15 min, and samples were centrifuged (3,600 RPM, 10 min, 4° C.) to precipitate protein. The supernatants were diluted 1:1 (v:v) with water containing 0.15 μM verapamil and/or 1 μM tolbutamide (internal standards for positive and negative modes, respectively) in a 96-well shallow injection plate. This plate was sealed for LC-MS analysis. All measurements were done in duplicate.
(§4) The residual compound remaining (% R) was determined from LC-MS peak areas by comparison to the zero time point. Metabolic half-life (t1/2) and intrinsic clearance (CLint) values were calculated from the slope of the plot of ln (% R) vs. time and the concentration of hepatocytes present in the incubation. Percent remaining at 60 minutes was calculated by plugging in the 60 minute value into the slope equation generated by the percent remaining time points.
(§5) In vivo hepatic clearance CLH was calculated using the well stirred liver model according to the following equation:
(§6) [formula] where QH is the total liver blood flow, fu is unbound fraction of the drug, and CL′int is defined as follows: CL′int=CLint×(10^6 cells/g of liver weight)×(g liver weight/kg of body weight). In the first approximation, used in this study, fu=1.
(§7) Hepatic extraction ratio EH was calculated using the following equation:
(§8) [formula] Corresponding physiological parameters used in calculations for all species are shown below in Table 5.

[2] = test system: mouse hepatocytes; assay: as above; format: in vitro ADME; settings: for CLint (μL/min/10^6 ells) / EH (%) hepatic extraction ratio: Mouse Hepatocytes; for CLint (μL/min/10^6 ells): 1 μM test compound; for EH (%) hepatic extraction ratio: well stirred liver model, fu=1; for clearance / metabolic profile, in words / EH lower as compared to ARI-002, in words / times lower clearance as compared to ARI-002: mouse hepatocytes
Source text: as §1, §2, §3, §4, §5, §6, §7, §8

SMILES	half-life at 1 μM [1] [h]	CLint (μL/min/10^6 ells) [2]	EH (%) hepatic extraction ratio [2] [%]	clearance / metabolic profile, in words [2]	EH lower as compared to ARI-002, in words [2]	times lower clearance as compared to ARI-002 [2] [times]
COC(=O)c1csc(C(=O)c2c[nH]c3ccc(F)cc23)n1 [ARI-066, methyl 2-(5-fluoro-1H-indole-3-carbonyl)thiazole-4-carboxylate]	0.223	51.9 μL/min/10^6 ells	75	–	–	–
Nc1nnc(-c2csc(C(=O)c3c[nH]c4cc(Cl)c(Cl)cc34)n2)o1 [ARI-120, (4-(5-amino-1,3,4-oxadiazol-2-yl)thiazol-2-yl)(5,6-dichloro-1H-indol-3-yl)methanone]	13.5	0.9 μL/min/10^6 ells	4.8	low clearance	–	–
CCC(=O)c1csc(C(=O)c2c[nH]c3cc(F)c(F)cc23)n1 [ARI-149, 1-(2-(5,6-difluoro-1H-indole-3-carbonyl)thiazol-4-yl)propan-1-one]	3.97	2.9 μL/min/10^6 ells	15	–	–	–
CCC(=O)c1csc(C(=O)c2c[nH]c3ccc(Cl)cc23)n1 [ARI-067, 1-(2-(5-chloro-1H-indole-3-carbonyl)thiazol-4-yl)propan-1-one]	3.54	3.3 μL/min/10^6 ells	16	–	–	–
COC(=O)c1csc(C(=O)c2c[nH]c3ccc(Cl)cc23)n1 [ARI-055, methyl 2-(5-chloro-1H-indole-3-carbonyl)thiazole-4-carboxylate]	2.25	5.1 μL/min/10^6 ells	23	–	–	–
CCC(=O)c1csc(C(=O)c2c[nH]c3c(F)cccc23)n1 [ARI-140, 1-(2-(7-fluoro-1H-indole-3-carbonyl)thiazol-4-yl)propan-1-one]	7.5	1.5 μL/min/10^6 ells	8.3	–	–	–
CCC(=O)c1csc(C(=O)c2c[nH]c3cc(F)ccc23)n1 [ARI-143, 1-(2-(6-fluoro-1H-indole-3-carbonyl)thiazol-4-yl)propan-1-one]	5.1	2.3 μL/min/10^6 ells	12	–	eight times lower	418
CNC(=O)c1csc(C(=O)c2c[nH]c3ccc(Cl)cc23)n1 [ARI-049, 2-(5-chloro-1H-indole-3-carbonyl)-N-methylthiazole-4-carboxamide]	1.59	7.3 μL/min/10^6 ells	30	lower clearance and EH value	–	–
Nc1nnc(-c2csc(C(=O)c3c[nH]c4ccccc34)n2)s1 [ARI-090, (4-(5-amino-1,3,4-thiadiazol-2-yl)thiazol-2-yl)(1H-indol-3-yl)methanone]	4.7	2.5 μL/min/10^6 ells	13	–	–	–
CCC(=O)c1csc(C(=O)c2c[nH]c3ccc(F)cc23)n1 [ARI-087, 1-(2-(5-fluoro-1H-indole-3-carbonyl)thiazol-4-yl)propan-1-one]	1.84	6.3 μL/min/10^6 ells	27	–	three times lower	153
COC(=O)c1csc(C(=O)c2c[nH]c3ccccc23)n1 [ARI-001, ITE]	0.0917	585.7 μL/min/10^6 ells	87	–	–	–
Nc1nnc(-c2csc(C(=O)c3c[nH]c4c(F)cccc34)n2)o1 [ARI-118, (4-(5-amino-1,3,4-oxadiazol-2-yl)thiazol-2-yl)(7-fluoro-1H-indol-3-yl)methanone]	14	0.8 μL/min/10^6 ells	4.6	low clearance	–	–
O=C(c1nc(-c2nnco2)cs1)c1c[nH]c2ccccc12 [ARI-056, (4-(1,3,4-oxadiazol-2-yl)thiazol-2-yl)(1H-indol-3-yl)methanone]	0.447	25.8 μL/min/10^6 ells	60	–	–	–
NCc1nc(-c2csc(C(=O)c3c[nH]c4c(F)cccc34)n2)no1 [ARI-146, (4-(5-(aminomethyl)-1,2,4-oxadiazol-3-yl)thiazol-2-yl)(7-fluoro-1H-indol-3-yl)methanone]	1.67	6.9 μL/min/10^6 ells	29	–	–	–
NCc1nnc(-c2csc(C(=O)c3c[nH]c4c(F)cccc34)n2)o1 [ARI-145, (4-(5-(aminomethyl)-1,3,4-oxadiazol-2-yl)thiazol-2-yl)(7-fluoro-1H-indol-3-yl)methanone]	2.27	5.1 μL/min/10^6 ells	23	–	–	–
CNC(=O)c1csc(C(=O)c2c[nH]c3ccc(F)cc23)n1 [ARI-065, 2-(5-fluoro-1H-indole-3-carbonyl)-N-methylthiazole-4-carboxamide]	1.62	7.1 μL/min/10^6 ells	29	lower clearance and EH value	–	–
Cc1noc(-c2csc(C(=O)c3c[nH]c4ccccc34)n2)n1 [ARI-031, (1H-indol-3-yl)(4-(3-methyl-1,2,4-oxadiazol-5-yl)thiazol-2-yl)methanone]	11.7	1.0 μL/min/10^6 ells	6	low clearance	–	–
CCC(=O)c1csc(C(=O)c2c[nH]c3cccc(F)c23)n1 [ARI-142, 1-(2-(4-fluoro-1H-indole-3-carbonyl)thiazol-4-yl)propan-1-one]	1.1	11 μL/min/10^6 ells	38	–	–	–
Cc1nnc(-c2csc(C(=O)c3c[nH]c4ccccc34)n2)o1 [ARI-060, (1H-indol-3-yl)(4-(5-methyl-1,3,4-oxadiazol-2-yl)thiazol-2-yl)methanone]	2.3	5.0 μL/min/10^6 ells	23	–	–	–
Nc1nnc(-c2csc(C(=O)c3c[nH]c4ccc(F)cc34)n2)o1 [ARI-148, (4-(5-amino-1,3,4-oxadiazol-2-yl)thiazol-2-yl)(5-fluoro-1H-indol-3-yl)methanone]	3.17	3.6 μL/min/10^6 ells	18	–	–	–
Nc1nnc(-c2csc(C(=O)c3c[nH]c4ccccc34)n2)o1 [ARI-083, (4-(5-amino-1,3,4-oxadiazol-2-yl)thiazol-2-yl)(1H-indol-3-yl)methanone]	16.1	0.7 μL/min/10^6 ells	4	lower clearance and hepatic extraction parameters than ARI-060	–	–
CNC(=O)c1csc(C(=O)c2c[nH]c3ccccc23)n1 [ARI-004]	0.0467	1,174.2 μL/min/10^6 ells	93	–	–	–
Cc1nc(-c2csc(C(=O)c3c[nH]c4ccccc34)n2)no1 [ARI-030, (1H-indol-3-yl)(4-(5-methyl-1,2,4-oxadiazol-3-yl)thiazol-2-yl)methanone]	0.285	40.5 μL/min/10^6 ells	70	–	–	–

Reference: patent US11891386B2, “Indole compounds and their use” (ARIAGEN, INC., priority 2017, dated 2024)
